Measurements reported in US12134610B2, “Somatostatin subtype-2 receptor (SST2R) targeted therapeutics and uses thereof” (priority 2022, dated 2024).
Like-named read-outs stand apart in the source and are kept apart here. Starred links: 1 amine or outer side, 2 acyl side, 3 side chain; linkers in the order of their positions; H or OH if unused. Non-standard residues stand in square brackets, D forms with d. Residues, ends and D or L forms follow the SMILES beside them. *: point of attachment. X4 = Cc1cc(F)cc(-c2cnc(NCCNC(=O)CCOCCOCCOCCOCCC(=O)*)c(-c3nc4ccc(Cl)cc4[nH]3)c2N2CCC(N)CC2)c1; X1 = Cc1cc(F)cc(-c2cnc(NCCNC(=O)CCOCCC(=O)*)c(-c3nc4ccc(Cl)cc4[nH]3)c2N2CCC(N)CC2)c1; Dolaproine = CO[C@@H]([C@@H]1CCCN1)[C@@H](C)C(=O)O; Dil = CC[C@H](C)[C@H](NC)[C@@H](CC(=O)O)OC; PABC = O=C(OCc1ccc(N[*:1])cc1)[*:2]; X2 = C[C@@H](N*)[C@@H](O)c1ccccc1; Cit = NC(=O)NCCC[C@H](N)C(=O)O; NMeV = CN[C@H](C(=O)O)C(C)C

Legend:
Assay type in all cases: cell-based
SST2 = biological target: T1, SST2 (Homo sapiens, UniProt P30874); experiment: PathHunter CHO-K1 SST2 internalization assay; conditions: PathHunter CHO-K1 SST2, 90 min
T1 construct: host or cells: PathHunter CHO-K1 SST2 cells
Description: SMDCs of the present invention were assessed in vitro using the human PathHunter CHO-K1 SST2 β-arrestin2 and PathHunter CHO-K1 SST2 Internalization Assays from DiscoverX. The CHO-K cells were seeded in 20 μLs of cell culture medium in a white-walled 384 well tissue culture-compatible plate at a density of 2500 cells/well. After a 48-hour incubation, cells were treated with 5 μLs of a 1:3 serially diluted SST2 SMDC prepared at 5× concentration with a final top compound concentration of 10 uM for 90 min at 37 C and in 5% CO2. 11 dilutions were tested as well as one treatment that was compound free. After incubation, the media containing treatments were discarded and 20 μL of a working solution of Beta-Glo from Promega Beta-Glo Assay System was added to each well. The plate was then incubated for 60 min at room temperature in the dark. Luminescence was measured using a Tecan plate reader. IC50 curves were generated using the nonlinear regression analysis (four-parameters) with GraphPad Prism 9. Results were the average of duplicates and are corrected for background.

[1] = system: NCI-H524 (ATCC) human small cell lung cancer cells
Description: SMDCs of the present invention were assessed in an in vitro assay evaluating the inhibition of cell proliferation. NCI-H524 (ATCC) human small cell lung cancer cells were plated in 96-well V-bottom plates (Costar) at a concentration of 5,000 cells/well. 24 h later, the cells were treated for 2 h with a SMDC. SMDC starting dose was 1 uM and two-fold serial dilutions were done for a total of 11 points. After 2 h of treatment, cells were spun down, and the drug-containing media was removed, and fresh complete media was added and used to resuspend the cells, which were spun again. After removal of the media, the cells were resuspended in complete medium and incubated for an additional 70 h. Cell proliferation was assessed using the CellTiter Glo Assay according to the standard protocol (Promega). Luminescence was measured using a TECAN plate reader. Percent proliferation inhibition was calculated using the following formula: % inhibition=(Luminescence Control−Luminescence Treatment)/Luminescence Control*100. IC50 curves were generated using the nonlinear regression analysis (four-parameter) with GraphPad Prism 9.

[2] = biological target: T2, human somatostatin receptor subtype 2 (Homo sapiens, UniProt P30874); experiment: Functional cAMP assay for SSTR2 agonists (HTRF) in CHO-K1 cells; conditions: CHO-K1 cells stably expressing human SST2, 20 min
T2 construct: expressed in transfected cells
Procedure, shortened: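 CHO-K1 cells stably expressing receptor, plated 4 days before assay, treated 20 min at 37° C. with compound (typically 0-10,000 nM final) plus IBMX and 1.6 μM NKH477 to raise cAMP. HTRF read, 665/620 nm ratio; cAMP from standard curve, EC50 fitted.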

[3] = 2 h treatment, washout, additional 70 h, read-out: H524 EC50

T2 sequence (P30874 whole entry): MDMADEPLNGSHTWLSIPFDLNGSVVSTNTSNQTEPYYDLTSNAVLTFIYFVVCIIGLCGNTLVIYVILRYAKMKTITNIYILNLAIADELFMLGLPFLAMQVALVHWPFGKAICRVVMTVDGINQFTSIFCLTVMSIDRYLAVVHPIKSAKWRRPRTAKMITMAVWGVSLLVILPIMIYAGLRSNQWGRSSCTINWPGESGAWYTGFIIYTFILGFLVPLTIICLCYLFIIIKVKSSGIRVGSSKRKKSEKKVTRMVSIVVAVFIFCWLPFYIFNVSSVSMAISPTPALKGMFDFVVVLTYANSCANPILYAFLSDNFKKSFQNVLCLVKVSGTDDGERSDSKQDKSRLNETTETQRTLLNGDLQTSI
T1 sequence (P30874 whole entry): as above

SMILES | EC50 (SST2; read-out: Internalization EC50) | EC50 ([1]; 2 h) | EC50 ([2]; read-out: hSST2 cAMP Avg EC50) | EC50 (SST2; Internalization EC50 (nM)) | EC50 [1, 3] | EC50 ([2]; hSST2 cAMP Avg EC50 (nM))
COc1cc2cc(c1Cl)N(C)C(=O)CC(OC(=O)[C@@H](C)N(C)C(=O)CCSSCCC(=O)NCCNc1ncc(-c3cc(C)cc(F)c3)c(N3CCC(N)CC3)c1-c1nc3ccc(Cl)cc3[nH]1)[C@]1(C)OC1[C@@H](C)C1C[C@@](O)(NC(=O)O1)[C@H](OC)/C=C/C=C(\C)C2 (stereo partly drawn) [Compound 20, (2S,5S,6S,16E,18E,20R,21S)-11-chloro-21-hydroxy-12,20-dimethoxy-2,5,9,16-tetramethyl-8,23-dioxo-4,24-dioxa-9,22-diazatetracyclo[19.3.1.1^10,^14.0^3,^5]hexacosa-10,12,14(26),16,18-pentaen-6-yl (2R)-2-[3-({2-[(2-{[4-(4-aminopiperidin-1-yl)-3-(6-chloro-1H-1,3-benzodiazol-2-yl)-5-(3-fluoro-5-methylphenyl)pyridin-2-yl]amino}ethyl)-carbamoyl]ethyl}disulfanyl)-N-methylpropanamido]propanoate] | 6.3 nM | 31.6 nM | 0.27 nM |  |  | 
COc1cc2cc(c1Cl)N(C)C(=O)CC(OC(=O)[C@@H](C)N(C)C(=O)CCSSCCOCCOCCOCCOCCC(=O)NCCNc1ncc(-c3cc(C)cc(F)c3)c(N3CCC(N)CC3)c1-c1nc3ccc(Cl)cc3[nH]1)[C@]1(C)OC1[C@@H](C)C1C[C@@](O)(NC(=O)O1)[C@H](OC)/C=C/C=C(\C)C2 (stereo partly drawn) [Compound 21] | 17.2 nM | 22.4 nM | 0.41 nM |  |  | 
COc1cc2cc(c1Cl)N(C)C(=O)CC(OC(=O)[C@@H](C)N(C)C(=O)CCSSCCOCCOCCOCCOCCOCCOCCOCCOCCC(=O)NCCNc1ncc(-c3cc(C)cc(F)c3)c(N3CCC(N)CC3)c1-c1nc3ccc(Cl)cc3[nH]1)[C@]1(C)OC1[C@@H](C)C1C[C@@](O)(NC(=O)O1)[C@H](OC)/C=C/C=C(\C)C2 (stereo partly drawn) [Compound 22] | 26 nM | 27.1 nM | 0.36 nM |  |  | 
COc1cc2cc(c1Cl)N(C)C(=O)CC(OC(=O)[C@@H](C)N(C)C(=O)CCSSCCC(=O)NCCNc1ncc(-c3cc(C)cc(F)c3)c(N3CCC(N)CC3)c1-c1nc3ccc(C(N)=O)cc3[nH]1)[C@]1(C)OC1[C@@H](C)C1C[C@@](O)(NC(=O)O1)[C@H](OC)/C=C/C=C(\C)C2 (stereo partly drawn) [Compound 23, (16E,18E)-11-chloro-21-hydroxy-12,20-dimethoxy-2,5,9,16-tetramethyl-8,23-dioxo-4,24-dioxa-9,22-diazatetracyclo[19.3.1.1^10,^14.0^3,^5]hexacosa-10,12,14(26),16,18-pentaen-6-yl 2-[3-({2-[(2-{[4-(4-aminopiperidin-1-yl)-3-(6-carbamoyl-1H-1,3-benzodiazol-2-yl)-5-(3-fluoro-5-methylphenyl)pyridin-2-yl]amino}ethyl)carbamoyl]ethyl}disulfanyl)-N-methylpropanamido]propanoate] | 245 nM | 132 nM | 0.66 nM |  |  | 
Cc1cc(F)cc(-c2cnc(NCCNC(=O)CCOCCC(=O)NCCNC(=O)c3c(C)[nH]c(/C=C4\C(=O)Nc5ccc(F)cc54)c3C)c(-c3nc4ccc(Cl)cc4[nH]3)c2N2CCC(N)CC2)c1 [Compound 29, N-(2-{[4-(4-aminopiperidin-1-yl)-3-(6-chloro-1H-1,3-benzodiazol-2-yl)-5-(3-fluoro-5-methylphenyl)pyridin-2-yl]amino}ethyl)-3-[2-({2-[(5-{[(3Z)-5-fluoro-2-oxo-2,3-dihydro-1H-indol-3-ylidene]methyl}-2,4-dimethyl-1H-pyrrol-3-yl)formamido]ethyl}carbamoyl)ethoxy]propenamide] | 2.2 nM | > 10000 nM | 0.065 nM |  |  | 
CC[C@H](C)[C@@H]([C@@H](CC(=O)N1CCC[C@H]1[C@H](OC)[C@@H](C)C(=O)N[C@H](C)[C@@H](O)c1ccccc1)OC)N(C)C(=O)[C@@H](NC(=O)[C@H](C(C)C)N(C)C(=O)OCc1ccc(NC(=O)[C@H](CCCNC(N)=O)NC(=O)[C@@H](NC(=O)CCOCCOCCOCCOCCC(=O)NCCNc2ncc(-c3cc(C)cc(F)c3)c(N3CCC(O)CC3)c2-c2nc3ccc(Cl)cc3[nH]2)C(C)C)cc1)C(C)C [Compound 31] | > 1000 nM | 1060 nM | 1700 nM |  |  | 
CC[C@H](C)[C@@H]([C@@H](CC(=O)N1CCC[C@H]1[C@H](OC)[C@@H](C)C(=O)N[C@H](C)[C@@H](O)c1ccccc1)OC)N(C)C(=O)[C@@H](NC(=O)[C@H](C(C)C)N(C)C(=O)OCc1ccc(NC(=O)[C@H](CCCNC(N)=O)NC(=O)[C@@H](NC(=O)CN2CCN(CC(=O)O)CCN(CC(=O)NCCNc3ncc(-c4cc(C)cc(F)c4)c(N4CCC(N)CC4)c3-c3nc4ccc(Cl)cc4[nH]3)CC2)C(C)C)cc1)C(C)C [Compound 33] | 34.9 nM | 274 nM | 0.63 nM |  |  | 
CC[C@H](C)[C@@H]([C@@H](CC(=O)N1CCC[C@H]1[C@H](OC)[C@@H](C)C(=O)N[C@H](C)[C@@H](O)c1ccccc1)OC)N(C)C(=O)[C@@H](NC(=O)[C@H](C(C)C)N(C)C(=O)CNC(=O)[C@H](Cc1ccccc1)NC(=O)CNC(=O)CNC(=O)CCOCCC(=O)NCCNc1ncc(-c2cc(C)cc(F)c2)c(N2CCC(N)CC2)c1-c1nc2ccc(Cl)cc2[nH]1)C(C)C [Compound 34] (X1-GGFG[NMeV]V[Dil][Dolaproine]-X2) |  |  |  | 21.8 nM | 3140 nM | 0.16 nM
CC[C@H](C)[C@@H]([C@@H](CC(=O)N1CCC[C@H]1[C@H](OC)[C@@H](C)C(=O)N[C@H](C)[C@@H](O)c1ccccc1)OC)N(C)C(=O)[C@@H](NC(=O)[C@H](C(C)C)N(C)C(=O)OCc1ccc(NC(=O)[C@H](CCCNC(N)=O)NC(=O)[C@@H](NC(=O)[C@H](CCC(=O)O)NC(=O)CCOCCC(=O)NCCNc2ncc(-c3cc(C)cc(F)c3)c(N3CCC(N)CC3)c2-c2nc3ccc(Cl)cc3[nH]2)C(C)C)cc1)C(C)C [Compound 36] (X1-EV[Cit][PABC][NMeV]V[Dil][Dolaproine]-X2) | 12.9 nM | 44.1 nM | 0.25 nM |  |  | 
CC[C@H](C)[C@@H]([C@@H](CC(=O)N1CCC[C@H]1[C@H](OC)[C@@H](C)C(=O)N[C@H](C)[C@@H](O)c1ccccc1)OC)N(C)C(=O)[C@@H](NC(=O)[C@H](C(C)C)N(C)C(=O)OCc1ccc(NC(=O)[C@H](CCCNC(N)=O)NC(=O)[C@@H](NC(=O)CCOCCNC(=O)CN2CCN(CC(=O)O)CCN(CC(=O)NCCNc3ncc(-c4cc(C)cc(F)c4)c(N4CCC(N)CC4)c3-c3nc4ccc(Cl)cc4[nH]3)CC2)C(C)C)cc1)C(C)C [Compound 37] | 13.7 nM | 102 nM | 0.071 nM |  |  | 
CC[C@@]1(O)C(=O)OCc2c1cc1n(c2=O)Cc2c-1nc1cc(F)c(C)c3c1c2[C@@H](NC(=O)OCc1ccc(NC(=O)[C@H](CCCNC(N)=O)NC(=O)[C@@H](NC(=O)CCOCCOCCOCCOCCC(=O)NCCNc2ncc(-c4cc(C)cc(F)c4)c(N4CCC(N)CC4)c2-c2nc4ccc(Cl)cc4[nH]2)C(C)C)cc1)CC3 [Compound 38] |  |  |  | 1 nM | 59.4 nM | 0.11 nM
CC[C@H](C)[C@@H]([C@@H](CC(=O)N1CCC[C@H]1[C@H](OC)[C@@H](C)C(=O)N[C@H](C)[C@@H](O)c1ccccc1)OC)N(C)C(=O)[C@@H](NC(=O)[C@H](C(C)C)N(C)C(=O)OCc1ccc(NC(=O)[C@H](CCCNC(N)=O)NC(=O)[C@@H](NC(=O)CN2CCN(CC(=O)O)CCN(CC(=O)NCCOCCOCCOCCOCCC(=O)NCCNc3ncc(-c4cc(C)cc(F)c4)c(N4CCC(N)CC4)c3-c3nc4ccc(Cl)cc4[nH]3)CC2)C(C)C)cc1)C(C)C [Compound 39] | 18.7 nM | 35.9 nM | 0.12 nM |  |  | 
CC[C@H](C)[C@@H]([C@@H](CC(=O)N1CCC[C@H]1[C@H](OC)[C@@H](C)C(=O)N[C@@H](Cc1ccccc1)C(=O)O)OC)N(C)C(=O)[C@@H](NC(=O)[C@H](C(C)C)N(C)C(=O)OCc1ccc(NC(=O)[C@H](CCCNC(N)=O)NC(=O)[C@@H](NC(=O)CCOCCOCCOCCOCCC(=O)NCCNc2ncc(-c3cc(C)cc(F)c3)c(N3CCC(N)CC3)c2-c2nc3ccc(Cl)cc3[nH]2)C(C)C)cc1)C(C)C [Compound 42] (X4-V[Cit][PABC][NMeV]V[Dil][Dolaproine]F-OH) | 8.6 nM | 57.3 nM | 0.12 nM |  |  | 
